For series [1] the following is noted: prior-art preparations, powder; cited from earlier work.
For series [2], the system named is macrophages. The settings on record: cited from earlier work.
For series [3] the following is noted: cited from earlier work.
Series [4] is described as follows: Clinical course of Patient I. (prostatic adenoma). It counts as in vivo, human. As for the experimental part:
Patient one.
Was hospitalized with complaints of difficult urination and urges to urinate.
Diagnosis: stage 1I prostatic adenoma.
Two courses of therapy with […] sodium salt dihydrate were performed by injections for 20 and 15 injections, respectively, with a 30-day interval between the injections. Doses of the preparation were from 100 to 500 mg in 1-5 ml of distilled water correspondingly.

In series [5] the test system is macrophages. The note with it: inflammatory diseases.
For series [6] the following is noted: Patient S.
For series [7] the following is noted: doses 20-1500 mg.
The conditions of series [8]: Patient S., after therapy (300 mg injection 5 days, then 100 mg perorally 2 times a day).
For series [9], the system named is macrophages. The note with it: patients with impaired cellular immunity.
For series [10] the following is noted: Patient G. As for the experimental part: Patient two.
Was hospitalized with diagnosis of erysipelas of the left forearm, edema, and exacerbation of psoriasis (temperature at hospitalization was 39.9° C.).
Tameril was injected daily in a single dose of 200 mg in 2 ml water.

For series [11] the following is noted: Patient S., after therapy (300 mg injection 5 days, then 100 mg perorally 2 times a day). This is another data set of the same source.
The mark [12] stands for this setting: erysipelas and psoriasis, after therapy (200 mg injection daily, then 100 mg for 5 days).

SMILES strings stand for the structures. Where two headings read alike, the source gives them in different places.

On to `Nn1[nH]c(=O)c2ccccc2c1=O.O.O.[Na]` [2-amino, 2-amino-1,2,3,4-tetrahydrophthalazine-1,4-dione sodium salt dihydrate], for which the solubility in water entry in series [1] was “easily soluble in water”. For the same compound, the effect on macrophages entry is “inactivates macrophages for several hours” in series [2] (inflammatory processes); “activates macrophages, interleukins and other acute-phase proteins” in series [2] (patients with impaired cellular immunity, e.g. malignant neoplasms). In series [3] (in vivo), the “side effects and allergic reactions” value was “does not cause side effects and allergic reactions”. In addition, the “effect of longterm treatment” value in [3] (patients with chronic and other diseases) is “causes tolerance and decreases the efficiency of therapy”. Besides, the values for the size of adenoma result in series [4] (after the first course of 20 injections) and in series [4] (after the second course of 15 injections) were “decreased” and “remained without further positive dynamic”, respectively.
Consider `Nc1cccc2c(=O)[nH][nH]c(=O)c12.[Na]` [Tamerit, 5-amino-2,3-dihydrophthalazine-1,4-dione sodium salt], for which, in [5], the “contents of TNF and acute-phase proteins” value is “decreasing the contents of TNF and acute-phase proteins”; the “function of neutrophilic granulocytes” value is “enhances super-oxidizing function and phagocytic activity of neutrophilic granulocytes”. The “state of the patient” value in series [6] (10 days after beginning of the therapy) was “satisfactory state”. For the same compound, the “state of the patient (cough, temperature)” value in [6] (three days after beginning of the therapy) is “cough disappeared, and temperature returned to normal”. Also, in series [7], the “side effects and allergic reactions” value is “does not cause side effects and allergic reactions”. For the same compound, in [8], the B-lymphocytes is given as 24.5%, the “Immunoglobulin A” value was 2.20 g/L, the “Immunoglobulin G” value worked out at 12.4 g/L and the “Immunoglobulin M” value is 2.21 g/L. Besides, in series [8], the Latex phagocytosis is on record as 76.2%, the T-helpers amounted to 29.5%, the T-lymphocytes is on record as 67.0% and the T-suppressors is recorded as 23.5%. Moreover, the TNF in series [8] is reported as 22.5. Moreover, the “effect on T-lymphocytes” value in [9] is “initiates specific reactions of T-lymphocytes”. In series [9] (e.g. malignant neoplasms, evident by release of TNF, interleukins, other acute-phase proteins), the effect on macrophages entry is “causes activation of macrophages”. In addition, the “time to disappearance of edema and hyperemia of the left forelimb” value in [10] (200 mg injected daily) turned out to be 4 days. The “state of the patient” value in [10] (after 200 mg daily then 100 mg injections for 5 days) is “satisfactory state”. In series [10] (setting [12]), the B-lymphocytes stood at 25.0%, the ESR is listed as 16.0 mm/h, the Eosinophils is reported as 4.0% and the Erythrocytes worked out at 6.9e+12 L⁻¹. In [10] (setting [12]), the Hemoglobin amounted to 148 g/L, the “Immunoglobulin A” value was 2.47 g/L, the “Immunoglobulin G” value was 13.7 g/L and the “Immunoglobulin M” value is 2.31 g/L. In [10] (setting [12]), this compound showed a Latex phagocytosis of 83.4%, a Leukocytes of 6.2e+09 L⁻¹, a Lymphocytes of 26.3% and a Monocytes of 2.0%. For the same compound, in [10] (setting [12]), the “Neutrophils: Segmented” value is given as 65.5%, the “Neutrophils: Stab” value was found to be 5.7%, the T-helpers was 31.2% and the T-lymphocytes is listed as 60.3%. In series [10] (setting [12]), this compound showed a T-suppressors of 20.1% and a TNF of 24.4. In series [11], this compound registered an ESR of 13.0 mm/h, an Eosinophils of 3.0%, an Erythrocytes of 5e+12 L⁻¹ and a Hemoglobin of 147 g/L. In series [11], the Leukocytes worked out at 5.5e+09 L⁻¹, the Lymphocytes is 23.0%, the Monocytes turned out to be 6.0% and the “Neutrophils: Segmented” value stood at 74.0%. Further, in series [11], the “Neutrophils: Stab” value amounted to 6.0%. The “state of the patient (urination)” value in series [4] (10 daily injections of 200 mg after the 2-amino courses) is “urination was normalized”.
Regarding `Nc1cccc2c(=O)[nH][nH]c(=O)c12` [luminol, 5-amino-2,3-dihydrophthalazine-1,4-dione], the medical effectiveness entry in series [3] (in vivo) is recorded as “medically ineffective”.

The values are drawn from US20020198208A1, “MEDICINAL PREPARATION AND PROCESS FOR MANUFACTURING THEREOF” (priority 2000, published 2002).
